Source: patent publication US20160145257A1, “SUBSTITUTED XANTHINES AND METHODS OF USE THEREOF” (Hydra Biosciences, Inc., priority 2013, published 2016)

Biological target: T1, hTRPC5 (Homo sapiens, UniProt Q9UL62)
T1 construct: expressed in transfected cells; host or cells: HEK293 TREx cells with inducible TRPC5 expression
T1 sequence (Q9UL62 1-973): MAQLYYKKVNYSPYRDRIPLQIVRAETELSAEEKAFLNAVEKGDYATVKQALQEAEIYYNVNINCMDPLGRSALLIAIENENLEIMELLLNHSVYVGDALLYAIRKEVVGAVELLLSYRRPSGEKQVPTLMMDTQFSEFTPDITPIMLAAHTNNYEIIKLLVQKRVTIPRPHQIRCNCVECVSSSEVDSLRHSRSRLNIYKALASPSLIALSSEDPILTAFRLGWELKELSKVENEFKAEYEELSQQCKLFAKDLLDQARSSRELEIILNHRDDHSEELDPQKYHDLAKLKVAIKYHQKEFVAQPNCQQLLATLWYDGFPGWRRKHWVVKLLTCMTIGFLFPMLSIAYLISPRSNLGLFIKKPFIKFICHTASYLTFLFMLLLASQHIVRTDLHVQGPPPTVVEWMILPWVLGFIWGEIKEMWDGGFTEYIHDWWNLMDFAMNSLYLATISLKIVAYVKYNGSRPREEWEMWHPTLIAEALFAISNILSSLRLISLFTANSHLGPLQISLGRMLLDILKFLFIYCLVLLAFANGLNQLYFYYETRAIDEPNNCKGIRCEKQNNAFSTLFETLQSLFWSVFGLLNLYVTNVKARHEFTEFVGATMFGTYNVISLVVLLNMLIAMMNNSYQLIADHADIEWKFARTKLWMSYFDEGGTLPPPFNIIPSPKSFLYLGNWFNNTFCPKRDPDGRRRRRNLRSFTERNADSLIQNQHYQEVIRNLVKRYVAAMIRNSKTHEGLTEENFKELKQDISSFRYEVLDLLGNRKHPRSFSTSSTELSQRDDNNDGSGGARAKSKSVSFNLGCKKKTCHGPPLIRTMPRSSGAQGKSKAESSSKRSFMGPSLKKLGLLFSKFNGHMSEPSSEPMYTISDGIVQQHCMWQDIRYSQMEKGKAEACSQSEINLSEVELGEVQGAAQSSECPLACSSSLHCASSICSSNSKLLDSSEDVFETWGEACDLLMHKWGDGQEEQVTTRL
Test: Whole-cell patch clamp, block of LaCl3-activated TRPC5 inward current
Format: cell-based
Conditions: TRPC5-expressing HEK293 TREx cells, 80 μM LaCl3, inward current, IC50 estimated from 5 μM and 500 nM, read-out: hTRPC5 Patch La3+ Inwd (nM) (All Batches)
Procedure, shortened: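 Whole-cell recordings in induced TRPC5-expressing HEK293 TREx cells, holding −40 mV, 400 ms ramps −120 to +100 mV every 5 s; current activated by 80 μM external LaCl3 and 1,400 nM pipette free Ca2+ (pH 7.2 internal, 7.4 external). Inward block at −80 mV, with LaCl3 present; IC50 estimated from testing at 5 μM and 500 nM.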

Row | Structure (SMILES) | IC50
1 | CCCCc1cccc(Oc2nc3c(c(=O)n(C)c(=O)n3C)n2Cc2cccc(Br)c2)c1 [Compound 174, 7-(3-bromobenzyl)-8-(3-butylphenoxy)-1,3-dimethyl-1H-purine-2,6(3H,7H)-dione] | 2000 to 10000 nM
2 | Cn1c(=O)c2c(nc(Oc3cccc(OC(F)(F)F)c3)n2Cc2cccc(OC(F)(F)F)c2)n(C)c1=O [Compound 166, 1,3-dimethyl-7-(3-(trifluoromethoxy)benzyl)-8-(3-(trifluoromethoxy)phenoxy)-1H-purine-2,6(3H,7H)-dione] | 100 to 500 nM
3 | COc1cccc(Cn2c(Oc3ccc(Br)cc3)nc3c2c(=O)n(C)c(=O)n3C)c1 [Compound 194, 8-(4-bromophenoxy)-7-(3-methoxybenzyl)-1,3-dimethyl-1H-purine-2,6(3H,7H)-dione] | 1000 to 2000 nM
4 | COc1cccc(Cn2c(Oc3ccc(-c4ccccc4)nc3)nc3c2c(=O)n(C)c(=O)n3C)c1 [Compound 171] | 2000 to 10000 nM
5 | CCc1coc(CSc2nc3c(c(=O)n(C)c(=O)n3C)n2Cc2ccc(C(C)=O)cc2)n1 [Compound 181, 7-(4-acetylbenzyl)-8-((4-ethyloxazol-2-yl)methylthio)-1,3-dimethyl-1H-purine-2,6(3H,7H)-dione] | 2000 to 10000 nM
6 | CN(C)Cc1ccc(Cn2c(Oc3cccc(OC(F)(F)F)c3)nc3c2c(=O)n(C)c(=O)n3C)cc1 [Compound 186] | 2000 to 10000 nM
7 | Cn1c(=O)c2c(nc(Oc3cccc(OC(F)(F)F)c3)n2Cc2ccc3ccccc3c2)n(C)c1=O [Compound 191, 1,3-dimethyl-7-(naphthalen-2-ylmethyl)-8-(3-(trifluoromethoxy)phenoxy)-1H-purine-2,6(3H,7H)-dione] | < 100 nM
8 | Cn1c(=O)c2c(nc(SCc3ccccn3)n2Cc2cccc(Br)c2)n(C)c1=O [Compound 12, 7-(3-bromobenzyl)-1,3-dimethyl-8-(pyridin-2-ylmethylthio)-1H-purine-2,6(3H,7H)-dione] | 500 to 1000 nM
9 | Cn1c(=O)c2c(nc(OCCCCCO)n2Cc2ccc(Cl)cc2)n(C)c1=O [Compound 217, 7-(4-Chlorobenzyl)-8-((5-hydroxypentyl)oxy)-1,3-dimethyl-1H-purine-2,6(3H,7H)-dione] | 2000 to 10000 nM
10 | CCc1coc(CSc2nc3c(c(=O)n(C)c(=O)n3C)n2Cc2ccc(Br)cc2)n1 [Compound 157, 7-(4-bromobenzyl)-8-((4-ethyloxazol-2-yl)methylthio)-1,3-dimethyl-1H-purine-2,6(3H,7H)-dione] | < 100 nM
11 | CCc1coc(CSc2nc3c(c(=O)n(C)c(=O)n3C)n2Cc2ccc(C)cc2)n1 [Compound 133, 8-((4-ethyloxazol-2-yl)methylthio)-1,3-dimethyl-7-(4-methylbenzyl)-1H-purine-2,6(3H,7H)-dione] | 100 to 500 nM
12 | CCCOCCc1nc2c(c(=O)n(C)c(=O)n2C)n1Cc1ccc(Br)cc1 [Compound 95, 7-(4-bromobenzyl)-1,3-dimethyl-8-(2-propoxyethyl)-1H-purine-2,6(3H,7H)-dione] | 1000 to 2000 nM
13 | Cn1c(=O)c2c(nc(Oc3cccc(OC(F)(F)F)c3)n2Cc2ccc(Cl)c(F)c2)n(C)c1=O [Compound 198, 7-(4-chloro-3-fluorobenzyl)-1,3-dimethyl-8-(3-(trifluoromethoxy)phenoxy)-1H-purine-2,6(3H,7H)-dione] | < 100 nM
14 | CN(C)Cc1cccc(Cn2c(Oc3cccc(OC(F)(F)F)c3)nc3c2c(=O)n(C)c(=O)n3C)c1 [Compound 183] | 2000 to 10000 nM
15 | CCCOCCc1nc2c(c(=O)n(C)c(=O)n2C)n1Cc1ccc(C(C)=O)cc1 [Compound 158] | 2000 to 10000 nM
16 | CCc1coc(CSc2nc3c(c(=O)n(C)c(=O)n3C)n2Cc2cccc(C)c2)n1 [Compound 132, 8-((4-ethyloxazol-2-yl)methylthio)-1,3-dimethyl-7-(3-methylbenzyl)-1H-purine-2,6(3H,7H)-dione] | 100 to 500 nM
17 | CCc1coc(CSc2nc3c(c(=O)n(C)c(=O)n3C)n2Cc2cccc(C(C)=O)c2)n1 [Compound 180, 7-(3-acetylbenzyl)-8-((4-ethyloxazol-2-yl)methylthio)-1,3-dimethyl-1H-purine-2,6(3H,7H)-dione] | 2000 to 10000 nM
18 | Cn1c(=O)c2c(nc(SCCCC#N)n2Cc2cccc(Cl)c2)n(C)c1=O [Compound 62] | 1000 to 2000 nM
19 | Cc1ccc(Oc2nc3c(c(=O)n(C)c(=O)n3C)n2Cc2cccc(Cl)c2)cc1 [Compound 76] | 2000 to 10000 nM
20 | Cn1c(=O)c2c(nc(Oc3cc(Cl)cc(OC(F)(F)F)c3)n2Cc2ccc(Cl)cc2)n(C)c1=O [Compound 202, 8-(3-chloro-5-(trifluoromethoxy)phenoxy)-7-(4-chlorobenzyl)-1,3-dimethyl-1H-purine-2,6(3H,7H)-dione] | < 100 nM
21 | Cn1c(=O)c2c(nc(Oc3cccc(C(F)(F)F)c3)n2Cc2cccc3ccccc23)n(C)c1=O [Compound 179, 1,3-dimethyl-7-(naphthalen-1-ylmethyl)-8-(3-(trifluoromethyl)phenoxy)-1H-purine-2,6(3H,7H)-dione] | 100 to 500 nM
22 | Cn1c(=O)c2c(nc(Oc3cccc(OC(F)(F)F)c3)n2Cc2cccc(Br)c2)n(C)c1=O [Compound 115, 7-(3-bromobenzyl)-1,3-dimethyl-8-(3-(trifluoromethoxy)phenoxy)-1H-purine-2,6(3H,7H)-dione] | < 100 nM
23 | Cn1c(=O)c2c(nc(SC(C)(C)C(=O)OC(C)(C)C)n2Cc2cccc(Br)c2)n(C)c1=O [Compound 3, Tert-butyl 2-(7-(3-bromobenzyl)-1,3-dimethyl-2,6-dioxo-2,3,6,7-tetrahydro-1H-purin-8-ylthio)-2-methylpropanoate] | 100 to 500 nM
24 | CCc1coc(CSc2nc3c(c(=O)n(C)c(=O)n3C)n2Cc2cccc(F)c2)n1 [Compound 147, 8-((4-ethyloxazol-2-yl)methylthio)-7-(3-fluorobenzyl)-1,3-dimethyl-1H-purine-2,6(3H,7H)-dione] | 100 to 500 nM

Continued, values first:

Row | IC50 | Structure (SMILES)
25 | 2000 to 10000 nM | CN1CCN(Cc2nc3c(c(=O)n(C)c(=O)n3C)n2Cc2cccc(Br)c2)CC1 [Compound 51]
26 | 2000 to 10000 nM | CCOCCNc1nc2c(c(=O)n(C)c(=O)n2C)n1Cc1cccc(Br)c1 [Compound 21]
27 | 100 to 500 nM | COCCOCCSc1nc2c(c(=O)n(C)c(=O)n2C)n1Cc1cccc(Br)c1 [Compound 17, 7-(3-bromobenzyl)-8-(2-(2-methoxyethoxy)ethylthio)-1,3-dimethyl-1H-purine-2,6(3H,7H)-dione]
28 | 2000 to 10000 nM | CC(Cc1nc2c(c(=O)n(C)c(=O)n2C)n1Cc1cccc(Br)c1)C(=O)O (stereo not shown) [Compound 117, 3-(7-(3-Bromobenzyl)-1,3-dimethyl-2,6-dioxo-2,3,6,7-tetrahydro-1H-purin-8-yl)-2-methylpropanoic acid]
29 | 2000 to 10000 nM | Cn1c(=O)c2c(nc(SCC#N)n2Cc2cccc(Br)c2)n(C)c1=O [Compound 7]
30 | 2000 to 10000 nM | CCCNC(=O)Cc1nc2c(c(=O)n(C)c(=O)n2C)n1Cc1cccc(Br)c1 [Compound 27, 2-(7-(3-Bromobenzyl)-1,3-dimethyl-2,6-dioxo-2,3,6,7-tetrahydro-1H-purin-8-yl)-N-propylacetamide]
31 | 2000 to 10000 nM | CCCOC(=O)Cc1nc2c(c(=O)n(C)c(=O)n2C)n1Cc1cccc(Br)c1 [Compound 26, Propyl-2-(7-(3-bromobenzyl)-1,3-dimethyl-2,6-dioxo-2,3,6,7-tetrahydro-1H-purin-8-yl)-acetate]
32 | 2000 to 10000 nM | CCCOCCc1nc2c(c(=O)n(C)c(=O)n2C)n1Cc1cccc(C#N)c1 [Compound 119]
33 | 2000 to 10000 nM | Cn1c(=O)c2c(nc(Cc3cccc(CO)c3)n2Cc2cccc(Br)c2)n(C)c1=O [Compound 124]
34 | 2000 to 10000 nM | CCCOCCc1nc2c(c(=O)n(C)c(=O)n2C)n1Cc1cccc(F)c1 [Compound 92]
35 | 1000 to 2000 nM | CCOC(=O)c1cccc(Cc2nc3c(c(=O)n(C)c(=O)n3C)n2Cc2cccc(Br)c2)c1 [Compound 102, ethyl 3-((7-(3-bromobenzyl)-1,3-dimethyl-2,6-dioxo-2,3,6,7-tetrahydro-1H-purin-8-yl)methyl)benzoate]
36 | 2000 to 10000 nM | Cn1c(=O)c2c(nc(CCNCc3ccccc3)n2Cc2cccc(Br)c2)n(C)c1=O [Compound 47, 8-(2-(Benzylamino)ethyl)-7-(3-bromobenzyl)-1,3-dimethyl-1H-purine-2,6(3H,7H)-dione]
37 | 500 to 1000 nM | CCC(=O)CSc1nc2c(c(=O)n(C)c(=O)n2C)n1Cc1cccc(Br)c1 [Compound 1, 7-(3-bromobenzyl)-1,3-dimethyl-8-(2-oxobutylthio)-1H-purine-2,6(3H,7H)-dione]
